Source: patent US11028072B2, “2,4-diamino-6-ethylpyrimidine derivatives with antimalarial activities against Plasmodium falciparum” (National Science and Technology Development Agency, priority 2015, dated 2021)
Where a name gives a salt, the structure may show the parent alone.

System: not listed separately
Test: in vitro
Details: African green monkey
From the text: (§1) In Vitro Antimalarial Activites Against P. falciparum and Cytotoxicity Towards Mammalian Cells (Vero Cells)

**Q.** Which IC50 does the source give for CCc1nc(N)nc(N)c1-c1ccc(Cl)cc1 [Pyrimethamine, pyrimethamine, reference compound] here?
**A.** > 10 µM

System: P. falciparum V1/S (N51I + C59R + S108 + I164L)
Test: microbe, parasite or virus in culture
Format: cell-based, Plasmodium falciparum
Details: Plasmodium falciparum; in vitro, quadruple mutant strain V1/S; read-out: IC50 P. falciparum V1/S
From the text: as §1

**Q.** For CCc1nc(N)nc(N)c1-c1ccc(Cl)cc1 [Pyrimethamine, pyrimethamine, reference compound], which IC50 is on record?
**A.** > 100 µM

System: P. falciparum TM4/8.2 (wild type)
Test: microbe, parasite or virus in culture
Format: cell-based, Plasmodium falciparum
Details: Plasmodium falciparum; in vitro, wild-type strain TM4/8.2; read-out: IC50 P. falciparum TM4/8.2 (WT)
From the text: as §1

**Q.** With CCc1nc(N)nc(N)c1-c1ccc(Cl)cc1 [Pyrimethamine, pyrimethamine, reference compound] as the compound, how does the IC50 read?
**A.** 0.058 ± 0.03 µM

System: not given
Test: not given
Details: not given

**Q.** Which melting point does the source give for CCc1nc(N)nc(N)c1OCc1coc(-c2cccc(OCC(=O)OCc3ccccc3)c2)n1 (as salt: hydrochloride) (hydrate or solvate) [Compound 53] here?
**A.** 163.5 to 164.5 °C

**Q.** Which melting point does the source give for CCc1nc(N)nc(N)c1OCc1coc(-c2cccc(OCC(=O)O)c2)n1 (as salt: hydrochloride) (hydrate or solvate) [Compound 54] here?
**A.** 203 to 204 °C

**Q.** With CCc1nc(N)nc(N)c1OCc1coc(-c2ccc(OCC(=O)OCc3ccccc3)cc2)n1 (as salt: hydrochloride) (hydrate or solvate) [Compound 56] as the compound, how does the melting point read?
**A.** 191.5 to 192.5 °C

**Q.** For CCc1nc(N)nc(N)c1OCc1coc(-c2ccc(OCC(=O)O)cc2)n1 (as salt: hydrochloride) (hydrate or solvate) [Compound 57], which melting point is on record?
**A.** 195.5 to 197.5 °C

**Q.** For CCc1nc(N)nc(N)c1OCc1csc(-c2cccc(OCC(=O)OCc3ccccc3)c2)n1 (as salt: hydrochloride) (hydrate or solvate) [Compound 63], which melting point is on record?
**A.** 175 to 177 °C

**Q.** Which melting point does the source give for CCc1nc(N)nc(N)c1OCc1csc(-c2cccc(OCC(=O)O)c2)n1 (as salt: hydrochloride) (hydrate or solvate) [Compound 64] here?
**A.** 191 to 193 °C

**Q.** With CCc1nc(N)nc(N)c1OCc1csc(-c2ccc(OCC(=O)OCc3ccccc3)cc2)n1 (as salt: hydrochloride) (hydrate or solvate) [Compound 72] as the compound, how does the melting point read?
**A.** 178 to 180 °C

**Q.** With CCc1nc(N)nc(N)c1OCc1csc(-c2ccc(OCC(=O)O)cc2)n1 (as salt: hydrochloride) (hydrate or solvate) [Compound 73] as the compound, how does the melting point read?
**A.** 203.5 to 205.5 °C

**Q.** With CCc1nc(N)nc(N)c1-c1cn(-c2ccccc2)nn1 (as salt: hydrochloride) [Compound 1] as the compound, how does the melting point read?
**A.** 273.2 to 274.5 °C

**Q.** For CCc1nc(N)nc(N)c1-c1cn(Cc2ccccc2)nn1 (as salt: hydrochloride) [Compound 3], which melting point is on record?
**A.** 255.5 to 256.5 °C

**Q.** With CCc1nc(N)nc(N)c1-c1cn(Cc2ccc(C(=O)OC)cc2)nn1 (as salt: hydrochloride) [Compound 4] as the compound, how does the melting point read?
**A.** 222 to 223 °C

**Q.** For CCc1nc(N)nc(N)c1-c1cn(Cc2ccc(C(=O)O)cc2)nn1 (as salt: hydrochloride) [Compound 5], which melting point is on record?
**A.** 270 to 272 °C

**Q.** Which melting point does the source give for CCc1nc(N)nc(N)c1-c1cn(Cc2ccc(OC(=O)N(c3ccccc3)c3ccccc3)cc2)nn1 (as salt: hydrochloride) [Compound 6] here?
**A.** 138 to 139 °C

**Q.** With CCc1nc(N)nc(N)c1-c1cn(CCc2ccccc2)nn1 (as salt: hydrochloride) [Compound 7] as the compound, how does the melting point read?
**A.** 203 to 204.5 °C

**Q.** For CCc1nc(N)nc(N)c1-c1cn(CCCc2ccccc2)nn1 (as salt: hydrochloride) [Compound 8], which melting point is on record?
**A.** 233 to 235 °C

**Q.** For CCc1nc(N)nc(N)c1-c1cn(CCOc2ccc(Cl)cc2)nn1 (as salt: hydrochloride) [Compound 9], which melting point is on record?
**A.** 173.5 to 175 °C

**Q.** For CCc1nc(N)nc(N)c1-c1cn(CCOc2ccc(C(=O)OC)cc2)nn1 (as salt: hydrochloride) [Compound 10], which melting point is on record?
**A.** 225 to 226 °C

**Q.** For CCc1nc(N)nc(N)c1-c1cn(CCCOc2ccc(Cl)cc2)nn1 (as salt: hydrochloride) [Compound 11], which melting point is on record?
**A.** 222.5 to 223.5 °C

**Q.** With CCc1nc(N)nc(N)c1-c1cn(CCCOc2ccc(C(=O)OC)cc2)nn1 (as salt: hydrochloride) [Compound 12] as the compound, how does the melting point read?
**A.** 211 to 212 °C

**Q.** Which melting point does the source give for CCc1nc(N)nc(N)c1OCc1cn(-c2ccccc2)nn1 (as salt: hydrochloride) [Compound 13] here?
**A.** 212.5 to 213.5 °C

**Q.** With CCc1nc(N)nc(N)c1OCc1cn(-c2cccc([N+](=O)[O-])c2)nn1 (as salt: hydrochloride) [Compound 14] as the compound, how does the melting point read?
**A.** 236 to 237 °C

**Q.** Which melting point does the source give for CCc1nc(N)nc(N)c1OCc1cn(-c2cccc(C(=O)OC)c2)nn1 (as salt: hydrochloride) [Compound 15] here?
**A.** 211 to 212 °C

**Q.** With CCc1nc(N)nc(N)c1OCc1cn(-c2ccc([N+](=O)[O-])cc2)nn1 (as salt: hydrochloride) [Compound 17] as the compound, how does the melting point read?
**A.** 209 to 210.5 °C

**Q.** Which melting point does the source give for CCc1nc(N)nc(N)c1OCc1cn(-c2ccc(C(=O)OC)cc2)nn1 (as salt: hydrochloride) [Compound 18] here?
**A.** 197.5 to 199 °C

**Q.** With CCc1nc(N)nc(N)c1OCc1cn(-c2ccc(C(=O)O)cc2)nn1 (as salt: hydrochloride) [Compound 19] as the compound, how does the melting point read?
**A.** 270.8 to 272 °C

**Q.** With CCc1nc(N)nc(N)c1OCCc1cn(-c2cccc(C(=O)O)c2)nn1 (as salt: hydrochloride) [Compound 20] as the compound, how does the melting point read?
**A.** 246 to 247 °C

**Q.** With CCc1nc(N)nc(N)c1OCCc1cn(-c2ccc(C(=O)OC)cc2)nn1 (as salt: hydrochloride) [Compound 21] as the compound, how does the melting point read?
**A.** 190 to 192 °C

**Q.** Which melting point does the source give for CCc1nc(N)nc(N)c1OCCc1cn(-c2ccc(C(=O)O)cc2)nn1 (as salt: hydrochloride) [Compound 22] here?
**A.** 270 to 271 °C

**Q.** Which melting point does the source give for CCc1nc(N)nc(N)c1OCCCc1cn(-c2cccc(C(=O)O)c2)nn1 (as salt: hydrochloride) [Compound 23] here?
**A.** 230.5 to 231.5 °C

**Q.** Which melting point does the source give for CCc1nc(N)nc(N)c1OCCCc1cn(-c2ccc(C(=O)OC)cc2)nn1 (as salt: hydrochloride) [Compound 24] here?
**A.** 208 to 209.5 °C

**Q.** With CCc1nc(N)nc(N)c1OCCCc1cn(-c2ccc(C(=O)O)cc2)nn1 (as salt: hydrochloride) [Compound 25] as the compound, how does the melting point read?
**A.** 239.5 to 241.5 °C

**Q.** For CCc1nc(N)nc(N)c1OCc1cn(Cc2cccc(C(=O)O)c2)nn1 (as salt: hydrochloride) [Compound 26], which melting point is on record?
**A.** 170 to 171 °C

**Q.** Which melting point does the source give for CCc1nc(N)nc(N)c1OCc1cn(Cc2cc(F)c(O)c(F)c2)nn1 (as salt: hydrochloride) [Compound 27] here?
**A.** 224.7 to 226 °C

**Q.** For CCc1nc(N)nc(N)c1OCc1cn(Cc2ccc(O)cc2)nn1 (as salt: hydrochloride) [Compound 28], which melting point is on record?
**A.** 224.2 to 225.2 °C

**Q.** Which melting point does the source give for CCc1nc(N)nc(N)c1OCc1cn(Cc2ccc(C(=O)O)cc2)nn1 (as salt: hydrochloride) [Compound 29] here?
**A.** 223.8 to 224.8 °C

**Q.** Which melting point does the source give for CCc1nc(N)nc(N)c1OCCc1cn(Cc2ccc(O)cc2)nn1 (as salt: hydrochloride) [Compound 30] here?
**A.** 213 to 215 °C

**Q.** For CCc1nc(N)nc(N)c1OCCCc1cn(Cc2ccc(C(=O)O)cc2)nn1 (as salt: hydrochloride) [Compound 32], which melting point is on record?
**A.** 211 to 212.5 °C

**Q.** For CCc1nc(N)nc(N)c1OCc1cc(-c2ccccc2)no1 (as salt: hydrochloride) [Compound 33], which melting point is on record?
**A.** 221.5 to 222.5 °C

**Q.** Which melting point does the source give for CCc1nc(N)nc(N)c1OCc1cc(-c2ccc(F)cc2)no1 (as salt: hydrochloride) [Compound 34] here?
**A.** 231 to 232 °C

**Q.** For CCc1nc(N)nc(N)c1OCc1cc(-c2ccc(Cl)cc2)no1 (as salt: hydrochloride) [Compound 35], which melting point is on record?
**A.** 230 to 231.5 °C

**Q.** For CCc1nc(N)nc(N)c1OCc1cc(-c2ccc(Br)cc2)no1 (as salt: hydrochloride) [Compound 36], which melting point is on record?
**A.** 238 to 239.5 °C

**Q.** Which melting point does the source give for CCc1nc(N)nc(N)c1OCc1cc(-c2cccc(C(F)(F)F)c2)no1 (as salt: hydrochloride) [Compound 37] here?
**A.** 224 to 225.5 °C

**Q.** With CCc1nc(N)nc(N)c1OCc1cc(-c2cccc(OC)c2)no1 (as salt: hydrochloride) [Compound 38] as the compound, how does the melting point read?
**A.** 211.5 to 212.5 °C

**Q.** With CCc1nc(N)nc(N)c1OCc1cc(-c2cccc([N+](=O)[O-])c2)no1 (as salt: hydrochloride) [Compound 39] as the compound, how does the melting point read?
**A.** 179.5 to 181.5 °C

**Q.** For CCc1nc(N)nc(N)c1OCc1cc(-c2cccc(C(=O)O)c2)no1 (as salt: hydrochloride) [Compound 40], which melting point is on record?
**A.** 192 to 194 °C

**Q.** For CCc1nc(N)nc(N)c1OCc1cc(-c2ccc(C(F)(F)F)cc2)no1 (as salt: hydrochloride) [Compound 41], which melting point is on record?
**A.** 173 to 174.5 °C

**Q.** With CCc1nc(N)nc(N)c1OCc1cc(-c2ccc(OC)cc2)no1 (as salt: hydrochloride) [Compound 42] as the compound, how does the melting point read?
**A.** 214 to 216 °C

**Q.** Which melting point does the source give for CCc1nc(N)nc(N)c1OCc1cc(-c2ccc([N+](=O)[O-])cc2)no1 (as salt: hydrochloride) [Compound 43] here?
**A.** 216 to 218 °C

**Q.** For CCc1nc(N)nc(N)c1OCc1cc(-c2ccc(C(=O)O)cc2)no1 (as salt: hydrochloride) [Compound 44], which melting point is on record?
**A.** 242 to 244 °C

**Q.** Which melting point does the source give for CCc1nc(N)nc(N)c1OCCCc1cc(-c2ccc(Cl)cc2)no1 (as salt: hydrochloride) [Compound 45] here?
**A.** 231.5 to 232.5 °C

**Q.** For CCc1nc(N)nc(N)c1OCCCc1cc(-c2cccc(C(F)(F)F)c2)no1 (as salt: hydrochloride) [Compound 46], which melting point is on record?
**A.** 216.5 to 218 °C

**Q.** For CCc1nc(N)nc(N)c1OCCCc1cc(-c2cccc(C#N)c2)no1 (as salt: hydrochloride) [Compound 47], which melting point is on record?
**A.** 252 to 253 °C

**Q.** With CCc1nc(N)nc(N)c1OCCCc1cc(-c2cccc(C(=O)OC)c2)no1 (as salt: hydrochloride) [Compound 48] as the compound, how does the melting point read?
**A.** 188 to 189.5 °C

**Q.** With CCc1nc(N)nc(N)c1OCc1coc(-c2ccccc2)n1 (as salt: hydrochloride) [Compound 50] as the compound, how does the melting point read?
**A.** 231 to 232 °C

**Q.** For CCc1nc(N)nc(N)c1OCc1coc(-c2cccc(C)c2)n1 (as salt: hydrochloride) [Compound 51], which melting point is on record?
**A.** 225 to 226 °C

**Q.** Which melting point does the source give for CCc1nc(N)nc(N)c1OCc1coc(-c2cccc([N+](=O)[O-])c2)n1 (as salt: hydrochloride) [Compound 52] here?
**A.** 221.5 to 222.5 °C
